For 32 molecules, IC50 results are on record in US11998539B2, “Substituted aminoquinolones as DGKalpha inhibitors for immune activation” (Bayer Aktiengesellschaft, priority 2019, dated 2024).

DGKα, sequence (P23743 other isoform, or with tags, fused parts or gaps): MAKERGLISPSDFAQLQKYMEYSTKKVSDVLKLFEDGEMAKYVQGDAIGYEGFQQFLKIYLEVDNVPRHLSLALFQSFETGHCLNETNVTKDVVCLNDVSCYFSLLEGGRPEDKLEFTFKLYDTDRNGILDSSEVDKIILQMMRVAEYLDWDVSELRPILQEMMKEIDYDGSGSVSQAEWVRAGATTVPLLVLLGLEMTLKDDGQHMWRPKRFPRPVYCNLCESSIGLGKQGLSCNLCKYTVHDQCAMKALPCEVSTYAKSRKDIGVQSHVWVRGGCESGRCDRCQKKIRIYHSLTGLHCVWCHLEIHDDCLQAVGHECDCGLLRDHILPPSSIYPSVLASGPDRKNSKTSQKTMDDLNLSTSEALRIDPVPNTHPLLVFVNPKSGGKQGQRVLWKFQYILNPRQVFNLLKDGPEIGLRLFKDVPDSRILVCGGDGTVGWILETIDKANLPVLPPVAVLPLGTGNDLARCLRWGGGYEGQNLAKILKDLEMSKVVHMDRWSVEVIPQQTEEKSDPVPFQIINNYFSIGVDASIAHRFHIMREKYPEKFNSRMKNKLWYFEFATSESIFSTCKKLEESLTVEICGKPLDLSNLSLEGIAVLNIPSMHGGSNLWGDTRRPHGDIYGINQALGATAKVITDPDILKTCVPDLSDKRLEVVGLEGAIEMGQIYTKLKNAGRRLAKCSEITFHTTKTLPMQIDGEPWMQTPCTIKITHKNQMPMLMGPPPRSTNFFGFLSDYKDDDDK

The target of the assay is DGKα (Homo sapiens (Human), UniProt P23743). The experiment in a line: Human DGKα kinase activity inhibition assay (ADP-Glo). It is filed as biochemical. Particulars: recombinant full-length human DGKα, 55 μM ATP, 7 μM 1,2-dioleoyl-sn-glycerol, read-out: IC50 values of examples in in vitro human DGKa kinase activity inhibition assays. The method in brief:
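Recombinant full-length human DGKα (C-terminal FLAG, from insect cells) phosphorylated 1,2-dioleoyl-sn-glycerol presented in octyl-glucopyranoside micelles. ADP formed was quantified by ADP-Glo luminescence. Compounds were added from 100-fold DMSO stocks.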
(In general: ADP-Glo first removes unused ATP, then detects ADP through luciferase.)
Usually IC50 stands for the concentration that inhibits the measured activity by half. As for `Cc1ccc2oc(C3(C)CCN(c4c(C#N)c(=O)n(C)c5cc(OCC6(O)CC6)ccc45)CC3)nc2c1` [Example 239, 7-[(1-hydroxycyclopropyl)methoxy]-1-methyl-4-[4-methyl-4-(5-methyl-1,3-benzoxazol-2-yl)piperidin-1-yl]-2-oxo-1,2-dihydroquinoline-3-carbonitrile], the IC50 turned out to be 0.6 nM.

Turning to `Cc1ccc2oc(C3CCN(c4c(C(N)=O)c(=O)n(C)c5cc(OCC6CO6)ccc45)CC3)nc2c1` (centres unmarked) [Example 481, 1-methyl-4-[4-(5-methyl-1,3-benzoxazol-2-yl)piperidin-1-yl]-7-{[oxiran-2-yl]methoxy}-2-oxo-1,2-dihydroquinoline-3-carboxamide], the IC50 was 2 nM.

As to `CC(C)c1ccc2oc(C3CCN(c4c(C#N)c(=O)n(C)c5ccccc45)CC3)nc2c1` [Example 8, 1-methyl-2-oxo-4-{4-[5-(propan-2-yl)-1,3-benzoxazol-2-yl]piperidin-1-yl}-1,2-dihydroquinoline-3-carbonitrile], the IC50 is 3.2 nM.

As for `COc1ccc2c(c1)c(N1CCC(c3nc(-c4ccccc4)no3)CC1)c(C#N)c(=O)n2C` [Example 437, 6-methoxy-1-methyl-2-oxo-4-[4-(3-phenyl-1,2,4-oxadiazol-5-yl)piperidin-1-yl]-1,2-dihydroquinoline-3-carbonitrile], the half-inhibitory concentration (IC50) is 27 nM.

Take `Cn1c(=O)c(C#N)c(N2CCC(c3nc4ccccc4o3)CC2)c2ccc(N3CCCC3=O)cc21` [Example 35, 4-[4-(1,3-benzoxazol-2-yl)piperidin-1-yl]-1-methyl-2-oxo-7-(2-oxopyrrolidin-1-yl)-1,2-dihydroquinoline-3-carbonitrile]: the IC50 amounted to 7.8 nM.

`CC(C)c1ccc2oc(C3(C)CCN(c4c(C(N)=O)c(=O)n(C)c5ccccc45)CC3)nc2c1` [Example 103, 1-methyl-4-{4-methyl-4-[5-(propan-2-yl)-1,3-benzoxazol-2-yl]piperidin-1-yl}-2-oxo-1,2-dihydroquinoline-3-carboxamide]: the IC50 came to 0.6 nM.

On to `CC(C)c1ccc(C2CCN(c3c(C#N)c(=O)n(C)c4ccccc34)CC2)cc1` [Example 47, 1-methyl-2-oxo-4-{4-[4-(propan-2-yl)phenyl]piperidin-1-yl}-1,2-dihydroquinoline-3-carbonitrile], for which the IC50 worked out at 3 nM.

As to `Cn1ccc2c(F)cc(C3CCN(c4c(C#N)c(=O)n(C)c5ccccc45)CC3)cc21` [Example 365, 4-[4-(4-fluoro-1-methyl-1H-indol-6-yl)piperidin-1-yl]-1-methyl-2-oxo-1,2-dihydroquinoline-3-carbonitrile], the IC50 stood at 14 nM.

As for `Cn1c(=O)c(C#N)c(N2CCC(c3cccc4scnc34)CC2)c2ccccc21` [Example 71, 4-[4-(1,3-benzothiazol-4-yl)piperidin-1-yl]-1-methyl-2-oxo-1,2-dihydroquinoline-3-carbonitrile], the IC50 was determined as 23 nM.

On to `Cc1ccc2oc(C3CCN(c4c(C#N)c(=O)n(C)c5cc(OCC(=O)O)ccc45)CC3)nc2c1` [Example 416, ({3-cyano-1-methyl-4-[4-(5-methyl-1,3-benzoxazol-2-yl)piperidin-1-yl]-2-oxo-1,2-dihydroquinolin-7-yl}oxy)acetic acid], for which the IC50 stood at 34 nM.

As to `Cc1ccc2oc(C3(C)CCN(c4c(C#N)c(=O)n(C)c5c(Cl)cccc45)CC3)nc2c1` [Example 231, 8-chloro-1-methyl-4-[4-methyl-4-(5-methyl-1,3-benzoxazol-2-yl)piperidin-1-yl]-2-oxo-1,2-dihydroquinoline-3-carbonitrile], the IC50 came to 108 nM.

Turning to `COc1ccc2c(N3CCC(c4nc5cc(Cl)ccc5o4)CC3)c(C#N)c(=O)n(C)c2c1` [Example 259, 4-[4-(5-chloro-1,3-benzoxazol-2-yl)piperidin-1-yl]-7-methoxy-1-methyl-2-oxo-1,2-dihydroquinoline-3-carbonitrile], the IC50 was determined as 29 nM.

For `COCCc1cccc2oc(C3CCN(c4c(C#N)c(=O)n(C)c5ccccc45)CC3)nc12` [Example 265, 4-{4-[4-(2-methoxyethyl)-1,3-benzoxazol-2-yl]piperidin-1-yl}-1-methyl-2-oxo-1,2-dihydroquinoline-3-carbonitrile], the concentration for half-maximal inhibition (IC50) was 49 nM.

With `Cn1c(=O)c(C#N)c(N2CCC(C)(c3nc4ccccc4o3)CC2)c2ccccc21` [Example 1, 4-[4-(1,3-benzoxazol-2-yl)-4-methylpiperidin-1-yl]-1-methyl-2-oxo-1,2-dihydroquinoline-3-carbonitrile], the IC50 amounted to 1.4 nM.

In the case of `CC1Cc2cc(C3CCN(c4c(C(N)=O)c(=O)n(C)c5ccccc45)CC3)ccc2O1` (centres unmarked) [Example 466, 1-methyl-4-{4-[2-methyl-2,3-dihydro-1-benzofuran-5-yl]piperidin-1-yl}-2-oxo-1 2-dihydroquinoline-3-carboxamide], the IC50 is 0.5 nM.

As for `Cc1ccc2oc(C3(C)CCN(c4c(C#N)c(=O)n(C)c5cc(Cl)ccc45)CC3)nc2c1` [Example 228, 7-chloro-1-methyl-4-[4-methyl-4-(5-methyl-1,3-benzoxazol-2-yl)piperidin-1-yl]-2-oxo-1,2-dihydroquinoline-3-carbonitrile], the IC50 came to 2.4 nM.

Take `CCC(C)c1ccc2c(c1)c(N1CCC(C)(c3nc4cc(C)ccc4o3)CC1)c(C#N)c(=O)n2C` (centres unmarked) [Example 211, 6-(butan-2-yl)-1-methyl-4-[4-methyl-4-(5-methyl-1,3-benzoxazol-2-yl)piperidin-1-yl]-2-oxo-1,2-dihydroquinoline-3-carbonitrile]: the IC50 was 456 nM.

Turning to `Cc1ccc2oc(C3CCN(c4c(C(N)=O)c(=O)n(C)c5ccc(P(C)(C)=O)cc45)CC3)nc2c1` [Example 453, 6-(dimethylphosphoryl)-1-methyl-4-[4-(5-methyl-1,3-benzoxazol-2-yl)piperidin-1-yl]-2-oxo-1,2-dihydroquinoline-3-carboxamide], the IC50 is 598 nM.

Take `Cn1c(=O)c(C#N)c(N2CCC(c3ccc(OC(F)(F)F)cc3)CC2)c2ccccc21` [Example 43, 1-methyl-2-oxo-4-{4-[4-(trifluoromethoxy)phenyl]piperidin-1-yl}-1,2-dihydroquinoline-3-carbonitrile]: the IC50 stood at 11 nM.

With `Cc1ccc2c(N3CCC(c4nc5ccccc5s4)CC3)c(C#N)c(=O)n(C)c2c1` [Example 222, 4-[4-(1,3-benzothiazol-2-yl)piperidin-1-yl]-1,7-dimethyl-2-oxo-1,2-dihydroquinoline-3-carbonitrile], the IC50 was 5.2 nM.

For `Cc1ccccc1-c1nnc(C2CCN(c3c(C(N)=O)c(=O)n(C)c4ccc(Br)cc34)CC2)o1` [Example 525, 6-bromo-1-methyl-4-{4-[5-(2-methylphenyl)-1,3,4-oxadiazol-2-yl]piperidin-1-yl}-2-oxo-1,2-dihydroquinoline-3-carboxamide], the IC50 was found to be 39 nM.

Turning to `Cc1cc(C#N)c2cc(C3CCN(c4c(C#N)c(=O)n(C)c5ccccc45)CC3)ccc2n1` [Example 344, 6-[1-(3-cyano-1-methyl-2-oxo-1,2-dihydroquinolin-4-yl)piperidin-4-yl]-2-methylquinoline-4-carbonitrile], the IC50 was determined as 489 nM.

In the case of `Cc1ccc2oc(C3(C)CCN(c4c(C#N)c(=O)n(C)c5cc(NC6CC6)ccc45)CC3)nc2c1` [Example 418, 7-(cyclopropylamino)-1-methyl-4-[4-methyl-4-(5-methyl-1,3-benzoxazol-2-yl)piperidin-1-yl]-2-oxo-1,2-dihydroquinoline-3-carbonitrile], the IC50 was 1.4 nM.

As for `Cn1c(=O)c(C#N)c(N2CCC(c3nc4cccc(F)c4o3)CC2)c2ccccc21` [Example 3, 4-[4-(7-fluoro-1,3-benzoxazol-2-yl)piperidin-1-yl]-1-methyl-2-oxo-1,2-dihydroquinoline-3-carbonitrile], the IC50 came to 2.6 nM.

Take `Cn1c(=O)c(C#N)c(N2CCC(F)(c3nc4ccccc4s3)CC2)c2ccccc21` [Example 16, 4-[4-(1,3-benzothiazol-2-yl)-4-fluoropiperidin-1-yl]-1-methyl-2-oxo-1,2-dihydroquinoline-3-carbonitrile]: the IC50 was determined as 9.9 nM.

For `Cn1c(=O)c(C#N)c(N2CCC(c3nc4ccccc4o3)CC2)c2cc(C#N)ccc21` [Example 175, 4-[4-(1,3-benzoxazol-2-yl)piperidin-1-yl]-1-methyl-2-oxo-1,2-dihydroquinoline-3,6-dicarbonitrile], the IC50 worked out at 4.2 nM.

With `Cc1ccc2oc(C3CCN(c4c(C#N)c(=O)n(C)c5c(Br)cccc45)CC3)nc2c1` [Example 397, 8-bromo-1-methyl-4-[4-(5-methyl-1,3-benzoxazol-2-yl)piperidin-1-yl]-2-oxo-1,2-dihydroquinoline-3-carbonitrile], the 50% inhibitory concentration (IC50) amounted to 399 nM.

For `Cn1c(=O)c(C(N)=O)c(N2CCC(c3ccccc3)CC2)c2ccccc21` [Example 114, 1-methyl-2-oxo-4-(4-phenylpiperidin-1-yl)-1,2-dihydroquinoline-3-carboxamide], the IC50 turned out to be 15 nM.

Regarding `Cc1ccc2oc(C3CCN(c4c(C#N)c(=O)n(C)c5cc(O)c(Br)cc45)CC3)nc2c1` [Example 422, 6-bromo-7-hydroxy-1-methyl-4-[4-(5-methyl-1,3-benzoxazol-2-yl)piperidin-1-yl]-2-oxo-1,2-dihydroquinoline-3-carbonitrile], the IC50 was determined as 0.7 nM.

For the molecule `Cn1c(=O)c(C#N)c(N2CCC(c3cccc(C#N)c3)CC2)c2ccccc21` [Example 327, 4-[4-(3-cyanophenyl)piperidin-1-yl]-1-methyl-2-oxo-1,2-dihydroquinoline-3-carbonitrile], the IC50 was determined as 85 nM.

Consider `COc1ccc(C2CCN(c3c(C#N)c(=O)n(C)c4c(F)cccc34)CC2)cc1` [Example 153, 8-fluoro-4-[4-(4-methoxyphenyl)piperidin-1-yl]-1-methyl-2-oxo-1,2-dihydroquinoline-3-carbonitrile], for which the IC50 was 45 nM.

`COCc1ccc2oc(C3(C)CCN(c4c(C#N)c(=O)n(C)c5ccccc45)CC3)nc2c1` [Example 391, 4-{4-[5-(methoxymethyl)-1,3-benzoxazol-2-yl]-4-methylpiperidin-1-yl}-1-methyl-2-oxo-1,2-dihydroquinoline-3-carbonitrile]: the IC50 amounted to 8.3 nM.
